The test deals with ApPKS KS-AT didomain. The experiment in a line: alpha-ketoglutarate dehydrogenase coupled NADH fluorescence. The settings on record: transacylation to ACP1 (AT site), corrected for ACP1 self-acylation; 50 mM sodium phosphate pH 7.6, 10% glycerol, 1 mM TCEP, 1 mM EDTA; read-out: Km (apparent). The class given is biochemical, Anas platyrhynchos.
For the molecule `CC(=O)SCCNC(=O)CCNC(=O)[C@H](O)C(C)(C)COP(=O)(O)OP(=O)(O)OC[C@H]1O[C@@H](n2cnc3c(N)ncnc32)[C@H](O)[C@@H]1OP(=O)(O)O` [acetyl-CoA], the Km was 8.97 ± 1.53 µM.

Turning to `CC(C)(COP(=O)(O)OP(=O)(O)OC[C@H]1O[C@@H](n2cnc3c(N)ncnc32)[C@H](O)[C@@H]1OP(=O)(O)O)[C@@H](O)C(=O)NCCC(=O)NCCSC(=O)CC(=O)O` [malonyl-CoA], the Km was 7.4 ± 0.97 µM.

For `CC(C(=O)O)C(=O)SCCNC(=O)CCNC(=O)[C@H](O)C(C)(C)COP(=O)(O)OP(=O)(O)OC[C@H]1O[C@@H](n2cnc3c(N)ncnc32)[C@H](O)[C@@H]1OP(=O)(O)O` (stereo partly shown) [methylmalonyl-CoA], the Km turned out to be 245 ± 37.7 µM.

Consider `CCC(=O)SCCNC(=O)CCNC(=O)[C@H](O)C(C)(C)COP(=O)(O)OP(=O)(O)OC[C@H]1O[C@@H](n2cnc3c(N)ncnc32)[C@H](O)[C@@H]1OP(=O)(O)O` [propionyl-CoA], for which the Km was found to be 12.2 ± 3.03 µM.

These data come from publication PMC6334511, “Biochemical characterization of the minimal domains of an iterative eukaryotic polyketide synthase” (The Febs Journal, 2018).
